# Source: patent US12291519B2, “2-hydroxycycloalkane-1-carbamoyl” (Idorsia Pharmaceuticals Ltd, priority 2019, dated 2025)
# Legend:
# [1] = molecular target: human Gal-3 (hGal-3) (Homo sapiens (Human), UniProt P17931); test: Competitive binding assay: biotinylated hGal-3 binding to microplate-adsorbed asialofetuin (ASF); conditions: Activity on hGal-3; binding of biotinylated hGal-3 to ASF-coated plates; mean values
# Protocol: (§1) Evaluation of Compound Inhibitory Activity (IC50)
# The inhibitory activity of compounds is determined in competitive binding assays. […] Alternatively, and preferably, a human Gal-1 version in which all six cysteines are substituted by serines may be used.
# Briefly, compounds are serially diluted in DMSO (working dilutions).
# (§2) Plates are incubated for 3 hours at 4° C. then washed with cold assay buffer (3×50 uL), incubated for 1 hour with 25 μL/well of a streptavidin-peroxidases solution (diluted in assay buffer to 80 ng/mL) at 4° C., followed by further washing steps with assay buffer (3×50 uL). Finally, 25 μL/well of ABTS substrate is added.
# (§3) The calculated IC50 values may fluctuate depending on the daily assay performance. Fluctuations of this kind are known to those skilled in the art. IC50 values from several measurements are given as mean values.
# [2] = molecular target: human Gal-1 (hGal-1); test: Competitive binding assay: biotinylated hGal-1 binding to microplate-adsorbed asialofetuin (ASF); conditions: Activity on hGal-1; binding of biotinylated hGal-1 to ASF-coated plates; mean values
# human Gal-1 (hGal-1), sequence (P09382 2-135 limits assumed): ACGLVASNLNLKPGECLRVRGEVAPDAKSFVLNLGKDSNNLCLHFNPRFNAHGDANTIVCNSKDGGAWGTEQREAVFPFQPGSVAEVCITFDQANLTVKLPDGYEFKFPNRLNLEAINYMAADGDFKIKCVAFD
# Protocol: as §1
# The inhibitory activity of compounds is determined in competitive binding assays. This spectrophotometric assay measures the binding of biotinylated human Gal-3 (hGal-3) or human Gal-1 (hGAl-1), respectively, to a microplate-adsorbed glycoprotein, asialofetuin (ASF) (Proc Natl Acad Sci USA. 2013 Mar. 26; 110(13):5052-7.). Alternatively, and preferably, a human Gal-1 version in which all six cysteines are substituted by serines may be used.
# Briefly, compounds are serially diluted in DMSO (working dilutions). ASF-coated 384 well pates are supplemented with 22.8 μL/well of biotinylated hGal-3 or hGal-1 in assay buffer (i.e. 300-1000 ng/mL biotinylated hGal-3 or hGal-1) to which 1.2 μL of compound working dilutions are added and mixed.
# as §2, with “added. OD (410 nm) is recorded after 30 to 45 min and IC50 values are calculated.” for “added.”
# as §3
# human Gal-3 (hGal-3), sequence (P17931 whole entry): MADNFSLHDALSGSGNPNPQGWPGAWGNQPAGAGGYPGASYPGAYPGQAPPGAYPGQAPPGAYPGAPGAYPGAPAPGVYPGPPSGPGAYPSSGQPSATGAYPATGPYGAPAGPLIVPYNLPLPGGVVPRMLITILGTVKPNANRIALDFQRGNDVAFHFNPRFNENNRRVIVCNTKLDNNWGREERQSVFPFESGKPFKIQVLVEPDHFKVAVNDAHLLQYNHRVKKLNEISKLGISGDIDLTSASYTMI
IC50 [1],IC50 [2],SMILES
95 nM,534 nM,"O=C([C@@H]1O[C@H](CO)[C@H](O)[C@H](n2cc(-c3cc(F)c(F)c(Cl)c3)nn2)[C@H]1O)N(Cc1ccccc1C(F)(F)F)[C@H]1CCCC[C@@H]1O [Example 66, (2R,3R,4S,5R,6R)-4-(4-(3-chloro-4,5-difluorophenyl)-1H-1,2,3-triazol-1-yl)-3,5-dihydroxy-N-((1S,2S)-2-hydroxycyclohexyl)-6-(hydroxymethyl)-N-(2-(trifluoromethyl)benzyl)tetrahydro-2H-pyran-2-carboxamide]"
22 nM,1340 nM,"CO[C@@H]1[C@@H](n2cc(-c3cc(F)c(Cl)c(Cl)c3)nn2)[C@@H](O)[C@@H](CO)O[C@H]1C(=O)N(c1cc(Cl)cc(Cl)c1)[C@H]1CCCC[C@@H]1O [Example 166, (2R,3R,4S,5R,6R)-4-(4-(3,4-dichloro-5-fluorophenyl)-1H-1,2,3-triazol-1-yl)-N-(3,5-dichlorophenyl)-5-hydroxy-N-((1S,2S)-2-hydroxycyclohexyl)-6-(hydroxymethyl)-3-methoxytetrahydro-2H-pyran-2-carboxamide]"
129 nM,1940 nM,"CC(=O)O[C@@H]1[C@@H](n2cc(-c3cc(F)cc(F)c3)nn2)[C@@H](O)[C@@H](CO)O[C@H]1C(=O)N(Cc1ccnn1C)[C@H]1CCCC[C@@H]1O [Example 49, (2R,3R,4S,5R,6R)-4-(4-(3,5-difluorophenyl)-1H-1,2,3-triazol-1-yl)-5-hydroxy-2-(((1S,2S)-2-hydroxycyclohexyl)((1-methyl-1H-pyrazol-5-yl)methyl)carbamoyl)-6-(hydroxymethyl)tetrahydro-2H-pyran-3-yl acetate]"
84 nM,2570 nM,"O=C([C@@H]1O[C@H](CO)[C@H](O)[C@H](n2cc(-c3cc(F)c(Br)c(F)c3)nn2)[C@H]1O)N(Cc1ccccc1C(F)(F)F)[C@H]1CCCC[C@@H]1O [Example 69, (2R,3R,4S,5R,6R)-4-(4-(4-bromo-3,5-difluorophenyl)-1H-1,2,3-triazol-1-yl)-3,5-dihydroxy-N-((1S,2S)-2-hydroxycyclohexyl)-6-(hydroxymethyl)-N-(2-(trifluoromethyl)benzyl)tetrahydro-2H-pyran-2-carboxamide]"
471 nM,> 100000 nM,"C#Cc1cccc(CN(C(=O)[C@@H]2O[C@H](CO)[C@H](O)[C@H](n3cc(-c4cc(F)c(F)c(F)c4)nn3)[C@H]2O)[C@H]2CCCC[C@@H]2O)c1 [Example 3, (2R,3R,4S,5R,6R)-N-(3-ethynylbenzyl)-3,5-dihydroxy-N-((1S,2S)-2-hydroxycyclohexyl)-6-(hydroxymethyl)-4-(4-(3,4,5-trifluorophenyl)-1H-1,2,3-triazol-1-yl)tetrahydro-2H-pyran-2-carboxamide]"
50 nM,751 nM,"CO[C@@H]1[C@@H](n2cc(-c3cc(F)cc(Br)c3)nn2)[C@@H](O)[C@@H](CO)O[C@H]1C(=O)N(c1cc(C)cc(C#N)c1)[C@H]1CCCC[C@@H]1O [Example 146, (2R,3R,4S,5R,6R)-4-(4-(3-bromo-5-fluorophenyl)-1H-1,2,3-triazol-1-yl)-N-(3-cyano-5-methylphenyl)-5-hydroxy-N-((1S,2S)-2-hydroxycyclohexyl)-6-(hydroxymethyl)-3-methoxytetrahydro-2H-pyran-2-carboxamide]"
71 nM,1920 nM,"O=C([C@@H]1O[C@H](CO)[C@H](O)[C@H](n2cc(-c3cc(F)c(F)c(F)c3)nn2)[C@H]1O)N(Cc1ccccc1Cl)[C@H]1CCCC[C@@H]1O [Example 6, (2R,3R,4S,5R,6R)-N-(2-chlorobenzyl)-3,5-dihydroxy-N-((1S,2S)-2-hydroxycyclohexyl)-6-(hydroxymethyl)-4-(4-(3,4,5-trifluorophenyl)-1H-1,2,3-triazol-1-yl)tetrahydro-2H-pyran-2-carboxamide]"
264 nM,3200 nM,"O=C([C@@H]1O[C@H](CO)[C@H](O)[C@H](n2cc(-c3cc(F)c(F)c(F)c3)nn2)[C@H]1O)N(Cc1cncnc1C(F)(F)F)[C@H]1CCCC[C@@H]1O [Example 27, (2R,3R,4S,5R,6R)-3,5-dihydroxy-N-((1S,2S)-2-hydroxycyclohexyl)-6-(hydroxymethyl)-N-((4-(trifluoromethyl)pyrimidin-5-yl)methyl)-4-(4-(3,4,5-trifluorophenyl)-1H-1,2,3-triazol-1-yl)tetrahydro-2H-pyran-2-carboxamide]"
26 nM,358 nM,"CO[C@@H]1[C@@H](n2cc(-c3cc(F)c(F)c(F)c3)nn2)[C@@H](O)[C@@H](CO)O[C@H]1C(=O)N(c1ccc(F)c(Cl)c1)[C@H]1CCCC[C@@H]1O [Example 90, (2R,3R,4S,5R,6R)-N-(3-chloro-4-fluorophenyl)-5-hydroxy-N-((1S,2S)-2-hydroxycyclohexyl)-6-(hydroxymethyl)-3-methoxy-4-(4-(3,4,5-trifluorophenyl)-1H-1,2,3-triazol-1-yl)tetrahydro-2H-pyran-2-carboxamide]"
12 nM,226 nM,"O=C(CO[C@@H]1[C@@H](n2cc(-c3cc(F)c(F)c(F)c3)nn2)[C@@H](O)[C@@H](CO)O[C@H]1C(=O)N(c1cc(Cl)cc(Cl)c1)[C@H]1CCCC[C@@H]1O)N1CCOCC1 [Example 124, (2R,3R,4S,5R,6R)—N-(3,5-dichlorophenyl)-5-hydroxy-N-((1S,2S)-2-hydroxycyclohexyl)-6-(hydroxymethyl)-3-(2-morpholino-2-oxoethoxy)-4-(4-(3,4,5-trifluorophenyl)-1H-1,2,3-triazol-1-yl)tetrahydro-2H-pyran-2-carboxamide]"
42 nM,901 nM,"COc1ccc(F)cc1-c1cn([C@H]2[C@@H](O)[C@@H](CO)O[C@@H](C(=O)N(c3cc(Cl)cc(C#N)c3)[C@H]3CCCC[C@@H]3O)[C@@H]2OC)nn1 [Example 76, (2R,3R,4S,5R,6R)-N-(3-chloro-5-cyanophenyl)-4-(4-(5-fluoro-2-methoxyphenyl)-1H-1,2,3-triazol-1-yl)-5-hydroxy-N-((1S,2S)-2-hydroxycyclohexyl)-6-(hydroxymethyl)-3-methoxytetrahydro-2H-pyran-2-carboxamide]"
143 nM,605 nM,"CO[C@@H]1[C@@H](n2cc(-c3nc(Cl)cs3)nn2)[C@@H](O)[C@@H](CO)O[C@H]1C(=O)N(c1cccc(F)c1F)[C@H]1CCCC[C@@H]1O [Example 193, (2R,3R,4S,5R,6R)-4-(4-(4-chlorothiazol-2-yl)-1H-1,2,3-triazol-1-yl)-N-(2,3-difluorophenyl)-5-hydroxy-N-((1S,2S)-2-hydroxycyclohexyl)-6-(hydroxymethyl)-3-methoxytetrahydro-2H-pyran-2-carboxamide]"
37 nM,359 nM,"CO[C@@H]1[C@@H](n2cc(-c3ccc(Cl)c(Cl)c3)nn2)[C@@H](O)[C@@H](CO)O[C@H]1C(=O)N(c1cc(F)cc(C#N)c1)[C@H]1CCCC[C@@H]1O [Example 187, (2R,3R,4S,5R,6R)-N-(3-cyano-5-fluorophenyl)-4-(4-(3,4-dichlorophenyl)-1H-1,2,3-triazol-1-yl)-5-hydroxy-N-((1S,2S)-2-hydroxycyclohexyl)-6-(hydroxymethyl)-3-methoxytetrahydro-2H-pyran-2-carboxamide]"
62 nM,3140 nM,"CO[C@@H]1[C@@H](n2cc(-c3cc(F)c(Br)c(F)c3)nn2)[C@@H](O)[C@@H](CO)O[C@H]1C(=O)N(c1ccc(F)c(F)c1)[C@H]1CCCC[C@@H]1O [Example 152, (2R,3R,4S,5R,6R)-4-(4-(4-bromo-3,5-difluorophenyl)-1H-1,2,3-triazol-1-yl)-N-(3,4-difluorophenyl)-5-hydroxy-N-((1S,2S)-2-hydroxycyclohexyl)-6-(hydroxymethyl)-3-methoxytetrahydro-2H-pyran-2-carboxamide]"
38 nM,978 nM,"CO[C@@H]1[C@@H](n2cc(-c3cc(F)c(F)c(F)c3)nn2)[C@@H](O)[C@@H](CO)O[C@H]1C(=O)N(c1cc(F)cc(F)c1)[C@H]1CCCC[C@@H]1O [Example 117, (2R,3R,4S,5R,6R)-N-(3,5-difluorophenyl)-5-hydroxy-N-((1S,2S)-2-hydroxycyclohexyl)-6-(hydroxymethyl)-3-methoxy-4-(4-(3,4,5-trifluorophenyl)-1H-1,2,3-triazol-1-yl)tetrahydro-2H-pyran-2-carboxamide]"
12 nM,181 nM,"O=C(CO[C@@H]1[C@@H](n2cc(-c3cc(F)c(F)c(F)c3)nn2)[C@@H](O)[C@@H](CO)O[C@H]1C(=O)N(c1cc(Cl)cc(Cl)c1)[C@H]1CCCC[C@@H]1O)N1CCC(O)CC1 [Example 127, (2R,3R,4S,5R,6R)—N-(3,5-dichlorophenyl)-5-hydroxy-N-((1S,2S)-2-hydroxycyclohexyl)-6-(hydroxymethyl)-3-(2-(4-hydroxypiperidin-1-yl)-2-oxoethoxy)-4-(4-(3,4,5-trifluorophenyl)-1H-1,2,3-triazol-1-yl)tetrahydro-2H-pyran-2-carboxamide]"
